# Test results as given in patent US20220211861A1, “DRUG CONJUGATES AND METHODS OF USING SAME” (The Board of Trustees of the Leland Staford Junior …, priority 2019, published 2022).
# *1 amine or outer side, *2 acyl side, *3 side chain or, on linkers, in order; H or OH if unused. Where a SMILES comes first, the peptide text is derived from it. Bridges are numbered along the chain shown (N, C = ends). Roman numbers before positions name the chains, in order. [ ]: non-standard residue; d: D form. The star is where a group is joined. X1 = O=C([C@H](CCCn1nnc2c1-c1ccccc1CN([*:3])c1ccccc1-2)N[*:1])[*:2]; Dolaproine = CO[C@@H]([C@@H]1CCCN1)[C@@H](C)C(=O)O; X3 = O=C(CCC(=O)[*:1])NCCOCCOCCOCCC(=O)[*:2]; Dil = CC[C@H](C)[C@H](NC)[C@@H](CC(=O)O)OC; PABC = O=C(OCc1ccc(N[*:1])cc1)[*:2]; X2 = C[C@@H](N*)[C@@H](O)c1ccccc1; Cit = NC(=O)NCCC[C@H](N)C(=O)O; NMeV = CN[C@H](C(=O)O)C(C)C
# Legend:
# [1] = tested on: RFP-expressing U87MG cells; assay: Inhibition of cell proliferation and cytotoxicity over time (IncuCyte, SYTOX green); assay type: cell-based; settings: only 3 h of exposure
# Protocol: To assess the activity of each drug conjugate in a model more representative of in vivo therapy, a similar assay was set up incubating RFP-expressing U87MG cells with SYTOX green and imaging every 4 h. After several time points, cells were washed and media was replaced with either fresh, drug-containing media or fresh, drug-free media (FIG. 14). All conjugates maintained high potency and inhibited proliferation after only 24 h exposure (FIG. 14B). […] The inhibition of cellular proliferation mirrored the measured cytotoxicity. All conjugates induced nearly 100% cell death when incubated without washing, with a wash of drug-containing media, or with washing after 24 h (FIG. 14D, 14E). Each construct was also evaluated under an even more stringent condition, with washing after 3 h of exposure. […] KFDC and KADC experienced substantial reductions in their respective potencies and each inhibited ˜50% of cell proliferation.
# RFP-expressing U87MG cells were seeded in a 96-well plate (Corning) at a density of 2.5×10^3 cells per well and grown overnight. Cells were then treated with 200 μL of fresh media containing 10 nM Cytox Green (ThermoFisher) and KDC, KFDC, KADC, or MMAE, at the approximate ED50 of 10 nM or at the saturating concentration of 100 nM. Cells were incubated in an IncuCyte S3 Live-Cell Analysis System for 5 d with images collected every 4 h. […]
# [2] = tested on: U87MG tumor spheroids; assay: Endpoint spheroid killing assay (SYTOX green, plate reader); assay type: cell-based; settings: 100 nM
# Protocol: (§1) Next, this in vitro model was modified to test if similar cell killing could be visualized in addition to confocal imaging experiments. Spheroids were treated with drug conjugates or MMAE at a range of concentrations. After incubating with drug conjugates for 5 d, media was replaced with fresh media containing SYTOX green. Fluorescence measured by a BioTek Synergy H4 microtiter plate reader was compared to spheroids treated with lysis buffer. […] To visualize this killing over time, spheroids treated with 50 or 100 nM of drug conjugates or MMAE were imaged every 4 h using an IncuCyte.
# Spheroids of U87MG cells were formed by seeding round-bottom, 96-well ultra-low adhesion plates (Corning) with 4×10^3 cells/well and centrifuging at 1000×g for 10 minutes. Spheroids were grown for 2 days before replacing media with 200 μL of fresh media containing 10 nM Cytox Green (ThermoFisher) and a range of concentrations of KDC, KFDC, KADC, or MMAE. After 4 d, trypsin-EDTA was added and cells were placed on a 60 RPM shaker for 10 min to disrupt spheroids. Green fluorescence was measured using was measured with a BioTek Synergy H4 microtiter plate reader. Percent toxicity was calculated by comparing green fluorescence to spheroids treated with lysis buffer.
# [3] = tested on: U87MG glioblastoma hip xenografts; assay: Ex vivo biodistribution of AF680-labeled conjugates; assay type: in vivo, mice; settings: radiant efficiency of excised organs
# Protocol: To further assess the tumor-to-background ratio, the uptake of fluorescently-labeled drug conjugate by each organ was measured ex vivo. Nude mice bearing U87MG glioblastoma hip xenografts were injected intravenously with Alexa Fluor 680-conjugated proteins. Mice were sacrificed after 3 or 24 h and organs were removed for imaging. […] Specifically, the liver, kidneys, spleen, pancreases, heart, lungs, bladder, quadriceps, and femur (FIG. 18).
# Mice bearing U87MG flank xenografts, as described above, were injected intravenously with 1.5 nmol of Alexa Fluor 680-labeled K, KFc, or KAb. Organs (tumor, liver, kidneys, spleen, pancreas, heart, lungs, bladder, quadriceps muscle, and bone) were collected at end points of 4 h and 24 h. Organs were imaged using an IVIS Spectrum (PerkinElmer). The fluorophore-conjugated protein was detected using excitation/emission wavelengths of 640 nm and 710 nm, respectively. All imaging analysis was performed using Living Image software (Caliper Life Sciences).
# [4] = tested on: RFP-expressing U87MG tumor spheroids; assay: Cell spheroid killing assay over time (IncuCyte); assay type: cell-based
# Protocol: as §1
# Spheroids of RFP-expressing U87MG cells were formed by seeding round-bottom, 96-well ultra-low adhesion plates (Corning) with 4×10^3 cells/well and centrifuging at 1000×g for 10 minutes. Spheroids were grown for 2 days before replacing media with 200 μL of fresh media containing 10 nM Cytox Green (ThermoFisher) and 0, 50, or 100 nM KDC, KFDC, KADC, or MMAE. Spheroids were incubated in an IncuCyte S3 Live-Cell Analysis System for 5 d with images collected every 4 h.
smiles,measurement,setting,value
"CC[C@H](C)[C@@H]([C@@H](CC(=O)N1CCC[C@H]1[C@H](OC)[C@@H](C)C(=O)N[C@H](C)[C@@H](O)c1ccccc1)OC)N(C)C(=O)[C@@H](NC(=O)[C@H](C(C)C)N(C)C(=O)OCc1ccc(NC(=O)[C@H](CCCNC(N)=O)NC(=O)[C@@H](NC(=O)CCOCCOCCOCCNC(=O)CCC(=O)N2Cc3ccccc3-c3c(nnn3CCC[C@@H]3NC(=O)[C@@H]4CSSC[C@@H]5NC(=O)[C@H](C(C)C)NC(=O)[C@H](CSSC[C@H](NC(=O)CN)C(=O)N6CCC[C@H]6C(=O)N[C@@H](CCCNC(=N)N)C(=O)N6CCC[C@H]6C(=O)N[C@@H](CCCNC(=N)N)C(=O)NCC(=O)N[C@@H](CC(=O)O)C(=O)N[C@@H](CC(N)=O)C(=O)N6CCC[C@H]6C(=O)N6CCC[C@H]6C(=O)N[C@@H](CC(C)C)C(=O)N[C@@H]([C@@H](C)O)C(=O)N4)NC(=O)CNC(=O)[C@H](C)NC(=O)[C@H](CC(C)C)NC(=O)[C@H](CSSC[C@@H](C(=O)NCC(N)=O)NC(=O)[C@H](Cc4ccc(O)cc4)NC(=O)CNC(=O)[C@H](CC(N)=O)NC(=O)[C@@H]4CCCN4C(=O)CNC5=O)NC(=O)[C@H](CC(=O)O)NC(=O)[C@H](CO)NC(=O)[C@H](CC(=O)O)NC(=O)[C@H](CCC(N)=O)NC3=O)-c3ccccc32)C(C)C)cc1)C(C)C [KDC] (I: H-GCPRPRGDNPPLTC[X1]QDSDCLAGCVCGPNGYCG-NH2 / II: V[Cit][PABC][NMeV]V[Dil][Dolaproine]-X2; disulfide I:2-I:24, I:14-I:26, I:20-I:32; linker I:15-II:N via X3; N-terminus assumed)",inhibition of proliferation,[1],complete cell inhibition
same,spheroid killing,[2],"substantially more killing than KFDC, KADC, or MMAE"
same,organ uptake ex vivo,[3],higher kidney and bladder uptake
same,spheroid toxicity,"[4]; 50 or 100 nM, imaged every 4 h",~100%
same,potency when co-administered with unconjugated knottin,[4]; drug conjugate plus unconjugated knottin,equivalently effective with or without addition of unconjugated knottin
